Data reported in patent publication US20260022142A1, “MACROCYCLIC IMMUNOMODULATORS” (Bristol-Myers Squibb Company, priority 2022, published 2026).
Bridge positions count the residues as written; N and C are the ends. Square brackets hold non-standard residues; d marks the D form. Peptide text beside a SMILES is read from it. * marks the point of attachment. Phe(4-COOH) = N[C@@H](Cc1ccc(C(=O)O)cc1)C(=O)O; Bip = N[C@@H](Cc1ccc(-c2ccccc2)cc1)C(=O)O; Phe(3-Me) = Cc1cccc(C[C@H](N)C(=O)O)c1; 4Pal = N[C@@H](Cc1ccncc1)C(=O)O; Cha = N[C@@H](CC1CCCCC1)C(=O)O; Carboxymethyl = O=C(O)C*; Orn = NCCC[C@H](N)C(=O)O; Pra = C#CC[C@H](N)C(=O)O; Aun = NCCCCCCCCCCC(=O)O; Dab = NCC[C@H](N)C(=O)O; Dap = NC[C@H](N)C(=O)O; AEEA = NCCOCCOCC(=O)O

Molecular target: T1, PD-1/PD-L1 interaction (PE-labeled human PD-L1-Ig binding to Jurkat cell line over-expressing human PD-1) (Homo sapiens, UniProt Q15116)
T1 construct: expressed in transfected cells; host or cells: Jurkat
T1 sequence (Q15116 25-288): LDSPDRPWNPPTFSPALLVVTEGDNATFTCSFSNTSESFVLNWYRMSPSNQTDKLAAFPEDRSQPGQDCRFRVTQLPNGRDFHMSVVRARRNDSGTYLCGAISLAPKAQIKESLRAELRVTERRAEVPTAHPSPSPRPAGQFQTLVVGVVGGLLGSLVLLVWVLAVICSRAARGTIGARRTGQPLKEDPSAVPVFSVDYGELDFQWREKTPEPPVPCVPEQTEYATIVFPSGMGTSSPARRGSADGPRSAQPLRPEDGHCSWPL
Assay: Jurkat-PD-1 Cell Binding High-Content Screening Assay (CBA)
Type: cell-based
Conditions: Jurkat cell line over-expressing human PD-1; PE-labeled PD-L1-Ig 20 nM final; read-out: Jurkat hPD1-PDL1 IC50
Summary of the method: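 Read-out is high-content imaging of cell-bound phycoerythrin-tagged PD-L1-Ig on fixed, Hoechst-counterstained Jurkat cells that over-express human PD-1. Compound exposure lasts 2 h at 37° C before the labeled ligand (20 nM final) is added for a further hour.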

SMILES: CC[C@H](C)[C@@H]1NC(=O)[C@H](Cc2ccc(-c3ccccc3)cc2)NC(=O)[C@H](C(C)C)NC(=O)[C@H](Cc2cccc(C)c2)NC(=O)[C@H](CC(=O)O)NC(=O)[C@H](Cc2ccc(C(=O)O)cc2)NC(=O)[C@H](Cc2ccncc2)NC(=O)CSC[C@@H](C(=O)N[C@@H](CCCNC(=N)N)C(=O)NCCCCCCCCCCC(=O)O)NC(=O)[C@H]([C@@H](C)O)NC(=O)[C@H](C(C)C)NC(=O)[C@H](CC2CCCCC2)NC(=O)[C@H](CCN)NC(=O)[C@@H](CC(C)C)NC(=O)[C@H](CCCN)NC1=O [Compound 1186]
- IC50: 103 nM

SMILES: CC[C@H](C)[C@@H]1NC(=O)[C@H](Cc2ccc(-c3ccccc3)cc2)NC(=O)[C@H](C(C)C)NC(=O)[C@H](Cc2cccc(C)c2)NC(=O)[C@H](CC(=O)O)NC(=O)[C@H](Cc2ccc(C(=O)O)cc2)NC(=O)[C@H](Cc2ccncc2)NC(=O)CSC[C@@H](C(=O)N[C@@H](Cc2cnc[nH]2)C(=O)NCCCCCCCCCCC(=O)O)NC(=O)[C@H]([C@@H](C)O)NC(=O)[C@H](C(C)C)NC(=O)[C@H](CC2CCCCC2)NC(=O)[C@H](CCN)NC(=O)[C@@H](CC(C)C)NC(=O)[C@H](CCCN)NC1=O [Compound 1187]
- IC50: 62.8 nM

SMILES: CC[C@H](C)[C@@H]1NC(=O)[C@H](Cc2ccc(-c3ccccc3)cc2)NC(=O)[C@H](C(C)C)NC(=O)[C@H](Cc2cccc(C)c2)NC(=O)[C@H](CC(=O)O)NC(=O)[C@H](Cc2ccc(C(=O)O)cc2)NC(=O)[C@H](Cc2ccncc2)NC(=O)CSC[C@@H](C(=O)NCCOCCOCC(=O)N[C@@H](CN)C(=O)NCCCCCCCCCCC(=O)O)NC(=O)[C@H]([C@@H](C)O)NC(=O)[C@H](C(C)C)NC(=O)[C@H](CC2CCCCC2)NC(=O)[C@H](CCN)NC(=O)[C@@H](CC(C)C)NC(=O)[C@H](CCCN)NC1=O [Compound 1188] ({CH2CO}-[4Pal][Phe(4-COOH)]D[Phe(3-Me)]V[Bip]I[Orn][dL][Dab][Cha]VTC[AEEA][Dap][Aun]-OH; thioether N-14)
- IC50: 148 nM

SMILES: CC[C@H](C)[C@@H]1NC(=O)[C@H](Cc2ccc(-c3ccccc3)cc2)NC(=O)[C@H](C(C)C)NC(=O)[C@H](Cc2cccc(C)c2)NC(=O)[C@H](CC(=O)O)NC(=O)[C@H](Cc2ccc(C(=O)O)cc2)NC(=O)[C@H](Cc2ccncc2)NC(=O)CSC[C@@H](C(=O)NCCOCCOCC(=O)N[C@@H](CCN)C(=O)NCCCCCCCCCCC(=O)O)NC(=O)[C@H]([C@@H](C)O)NC(=O)[C@H](C(C)C)NC(=O)[C@H](CC2CCCCC2)NC(=O)[C@H](CCN)NC(=O)[C@@H](CC(C)C)NC(=O)[C@H](CCCN)NC1=O [Compound 1189] ({CH2CO}-[4Pal][Phe(4-COOH)]D[Phe(3-Me)]V[Bip]I[Orn][dL][Dab][Cha]VTC[AEEA][Dab][Aun]-OH; thioether N-14)
- IC50: 23.6 nM

SMILES: CC[C@H](C)[C@@H]1NC(=O)[C@H](Cc2ccc(-c3ccccc3)cc2)NC(=O)[C@H](C(C)C)NC(=O)[C@H](Cc2cccc(C)c2)NC(=O)[C@H](CC(=O)O)NC(=O)[C@H](Cc2ccc(C(=O)O)cc2)NC(=O)[C@H](Cc2ccncc2)NC(=O)CSC[C@@H](C(=O)NCCOCCOCC(=O)N[C@@H](CCCN)C(=O)NCCCCCCCCCCC(=O)O)NC(=O)[C@H]([C@@H](C)O)NC(=O)[C@H](C(C)C)NC(=O)[C@H](CC2CCCCC2)NC(=O)[C@H](CCN)NC(=O)[C@@H](CC(C)C)NC(=O)[C@H](CCCN)NC1=O [Compound 1190] ({CH2CO}-[4Pal][Phe(4-COOH)]D[Phe(3-Me)]V[Bip]I[Orn][dL][Dab][Cha]VTC[AEEA][Orn][Aun]-OH; thioether N-14)
- IC50: 24.8 nM

SMILES: CC[C@H](C)[C@@H]1NC(=O)[C@H](Cc2ccc(-c3ccccc3)cc2)NC(=O)[C@H](C(C)C)NC(=O)[C@H](Cc2cccc(C)c2)NC(=O)[C@H](CC(=O)O)NC(=O)[C@H](Cc2ccc(C(=O)O)cc2)NC(=O)[C@H](Cc2ccncc2)NC(=O)CSC[C@@H](C(=O)NCCOCCOCC(=O)N[C@@H](CCCCN)C(=O)NCCCCCCCCCCC(=O)O)NC(=O)[C@H]([C@@H](C)O)NC(=O)[C@H](C(C)C)NC(=O)[C@H](CC2CCCCC2)NC(=O)[C@H](CCN)NC(=O)[C@@H](CC(C)C)NC(=O)[C@H](CCCN)NC1=O [Compound 1191] ({CH2CO}-[4Pal][Phe(4-COOH)]D[Phe(3-Me)]V[Bip]I[Orn][dL][Dab][Cha]VTC[AEEA]K[Aun]-OH; thioether N-14)
- IC50: 19.7 nM

SMILES: CC[C@H](C)[C@@H]1NC(=O)[C@H](Cc2ccc(-c3ccccc3)cc2)NC(=O)[C@H](C(C)C)NC(=O)[C@H](Cc2cccc(C)c2)NC(=O)[C@H](CC(=O)O)NC(=O)[C@H](Cc2ccc(C(=O)O)cc2)NC(=O)[C@H](Cc2ccncc2)NC(=O)CSC[C@@H](C(=O)NCCOCCOCC(=O)N[C@@H](CCCNC(=N)N)C(=O)NCCCCCCCCCCC(=O)O)NC(=O)[C@H]([C@@H](C)O)NC(=O)[C@H](C(C)C)NC(=O)[C@H](CC2CCCCC2)NC(=O)[C@H](CCN)NC(=O)[C@@H](CC(C)C)NC(=O)[C@H](CCCN)NC1=O [Compound 1192] ({CH2CO}-[4Pal][Phe(4-COOH)]D[Phe(3-Me)]V[Bip]I[Orn][dL][Dab][Cha]VTC[AEEA]R[Aun]-OH; thioether N-14)
- IC50: 45.5 nM

SMILES: C#CC[C@H](NC(=O)COCCOCCNC(=O)[C@H](CCN)NC(=O)[C@@H]1CSCC(=O)N[C@@H](Cc2ccncc2)C(=O)N[C@@H](Cc2ccc(OCC(=O)O)cc2)C(=O)N[C@@H](CC(=O)O)C(=O)N[C@@H](Cc2c[nH]c3ccccc23)C(=O)N[C@@H](C(C)C)C(=O)N[C@@H](Cc2ccc(-c3ccccc3)cc2)C(=O)N[C@@H]([C@@H](C)CC)C(=O)N[C@@H](CCCN)C(=O)N[C@H](CC(C)C)C(=O)N[C@@H](CCN)C(=O)N[C@@H](CC(C)C)C(=O)N[C@@H](C(C)C)C(=O)N[C@@H]([C@@H](C)O)C(=O)N1)C(=O)N[C@@H](CN)C(=O)NCCCCCCCCCCC(=O)O [Compound 1193] ({CH2CO}-[4Pal]Y(Carboxymethyl)DWV[Bip]I[Orn][dL][Dab]LVTC[Dab][AEEA][Pra][Dap][Aun]-OH; thioether N-14)
- IC50: 10.3 nM

SMILES: C#CC[C@H](NC(=O)COCCOCCNC(=O)[C@H](CCN)NC(=O)[C@@H]1CSCC(=O)N[C@@H](Cc2ccncc2)C(=O)N[C@@H](Cc2ccc(OCC(=O)O)cc2)C(=O)N[C@@H](CC(=O)O)C(=O)N[C@@H](Cc2c[nH]c3ccccc23)C(=O)N[C@@H](C(C)C)C(=O)N[C@@H](Cc2ccc(-c3ccccc3)cc2)C(=O)N[C@@H]([C@@H](C)CC)C(=O)N[C@@H](CCCN)C(=O)N[C@H](CC(C)C)C(=O)N[C@@H](CCN)C(=O)N[C@@H](CC(C)C)C(=O)N[C@@H](C(C)C)C(=O)N[C@@H]([C@@H](C)O)C(=O)N1)C(=O)N[C@@H](CCN)C(=O)NCCCCCCCCCCC(=O)O [Compound 1194] ({CH2CO}-[4Pal]Y(Carboxymethyl)DWV[Bip]I[Orn][dL][Dab]LVTC[Dab][AEEA][Pra][Dab][Aun]-OH; thioether N-14)
- IC50: 14.8 nM

SMILES: C#CC[C@H](NC(=O)COCCOCCNC(=O)[C@H](CCN)NC(=O)[C@@H]1CSCC(=O)N[C@@H](Cc2ccncc2)C(=O)N[C@@H](Cc2ccc(OCC(=O)O)cc2)C(=O)N[C@@H](CC(=O)O)C(=O)N[C@@H](Cc2c[nH]c3ccccc23)C(=O)N[C@@H](C(C)C)C(=O)N[C@@H](Cc2ccc(-c3ccccc3)cc2)C(=O)N[C@@H]([C@@H](C)CC)C(=O)N[C@@H](CCCN)C(=O)N[C@H](CC(C)C)C(=O)N[C@@H](CCN)C(=O)N[C@@H](CC(C)C)C(=O)N[C@@H](C(C)C)C(=O)N[C@@H]([C@@H](C)O)C(=O)N1)C(=O)N[C@@H](CCCN)C(=O)NCCCCCCCCCCC(=O)O [Compound 1195] ({CH2CO}-[4Pal]Y(Carboxymethyl)DWV[Bip]I[Orn][dL][Dab]LVTC[Dab][AEEA][Pra][Orn][Aun]-OH; thioether N-14)
- IC50: 13.7 nM

SMILES: C#CC[C@H](NC(=O)COCCOCCNC(=O)[C@H](CCN)NC(=O)[C@@H]1CSCC(=O)N[C@@H](Cc2ccncc2)C(=O)N[C@@H](Cc2ccc(OCC(=O)O)cc2)C(=O)N[C@@H](CC(=O)O)C(=O)N[C@@H](Cc2c[nH]c3ccccc23)C(=O)N[C@@H](C(C)C)C(=O)N[C@@H](Cc2ccc(-c3ccccc3)cc2)C(=O)N[C@@H]([C@@H](C)CC)C(=O)N[C@@H](CCCN)C(=O)N[C@H](CC(C)C)C(=O)N[C@@H](CCN)C(=O)N[C@@H](CC(C)C)C(=O)N[C@@H](C(C)C)C(=O)N[C@@H]([C@@H](C)O)C(=O)N1)C(=O)N[C@@H](CCCCN)C(=O)NCCCCCCCCCCC(=O)O [Compound 1196] ({CH2CO}-[4Pal]Y(Carboxymethyl)DWV[Bip]I[Orn][dL][Dab]LVTC[Dab][AEEA][Pra]K[Aun]-OH; thioether N-14)
- IC50: 9.6 nM

SMILES: C#CC[C@H](NC(=O)COCCOCCNC(=O)[C@H](CCN)NC(=O)[C@@H]1CSCC(=O)N[C@@H](Cc2ccncc2)C(=O)N[C@@H](Cc2ccc(OCC(=O)O)cc2)C(=O)N[C@@H](CC(=O)O)C(=O)N[C@@H](Cc2c[nH]c3ccccc23)C(=O)N[C@@H](C(C)C)C(=O)N[C@@H](Cc2ccc(-c3ccccc3)cc2)C(=O)N[C@@H]([C@@H](C)CC)C(=O)N[C@@H](CCCN)C(=O)N[C@H](CC(C)C)C(=O)N[C@@H](CCN)C(=O)N[C@@H](CC(C)C)C(=O)N[C@@H](C(C)C)C(=O)N[C@@H]([C@@H](C)O)C(=O)N1)C(=O)N[C@@H](CCCNC(=N)N)C(=O)NCCCCCCCCCCC(=O)O [Compound 1197] ({CH2CO}-[4Pal]Y(Carboxymethyl)DWV[Bip]I[Orn][dL][Dab]LVTC[Dab][AEEA][Pra]R[Aun]-OH; thioether N-14)
- IC50: 14.8 nM

SMILES: C#CC[C@H](NC(=O)COCCOCCNC(=O)[C@H](CCN)NC(=O)[C@@H]1CSCC(=O)N[C@@H](Cc2ccncc2)C(=O)N[C@@H](Cc2ccc(OCC(=O)O)cc2)C(=O)N[C@@H](CC(=O)O)C(=O)N[C@@H](Cc2c[nH]c3ccccc23)C(=O)N[C@@H](C(C)C)C(=O)N[C@@H](Cc2ccc(-c3ccccc3)cc2)C(=O)N[C@@H]([C@@H](C)CC)C(=O)N[C@@H](CCCN)C(=O)N[C@H](CC(C)C)C(=O)N[C@@H](CCN)C(=O)N[C@@H](CC(C)C)C(=O)N[C@@H](C(C)C)C(=O)N[C@@H]([C@@H](C)O)C(=O)N1)C(=O)N[C@@H](Cc1c[nH]cn1)C(=O)NCCCCCCCCCCC(=O)O [Compound 1198] ({CH2CO}-[4Pal]Y(Carboxymethyl)DWV[Bip]I[Orn][dL][Dab]LVTC[Dab][AEEA][Pra]H[Aun]-OH; thioether N-14)
- IC50: 15.1 nM
